From the NIST ThermoML archive (doi:10.1021/je9002948)

How the values were obtained:
[1] = molar heat capacity at constant pressure; wn = mass fraction of the nth substance listed; conditions: 101 kPa, Liquid, Small sample (50 mg) DSC
[2] = molar heat capacity at constant pressure; conditions: 101.33 kPa, Liquid, Small sample (50 mg) DSC

NCC(=O)[O-].[Na+] [sodium glycinate] + O
molar heat capacity at constant pressure [J/K/mol], [1]
Conditions	298.15 K	303.15 K	308.15 K	313.15 K	318.15 K	323.15 K
w1 = 0.01	75.2	75.21	75.25	75.32	75.4	75.41
w1 = 0.05	76.7	76.72	76.77	76.85	76.92	77.05
w1 = 0.1	77.39	77.41	77.47	77.53	77.59	77.67
w1 = 0.15	78.81	78.85	78.91	78.99	79.07	79.2
w1 = 0.2	78.23	78.79	79.45	80.12	80.77	81.48
w1 = 0.3	80.84	81.46	82.1	82.75	83.44	84.11

O [water]
[2]
Conditions	molar heat capacity at constant pressure [J/K/mol]
303.15 K	75.29
308.15 K	75.36
313.15 K	75.38
318.15 K	75.39
323.15 K	75.39
328.15 K	75.39
333.15 K	75.41
338.15 K	75.41
343.15 K	75.43
348.15 K	75.45
353.15 K	75.48
